Data on 21 compounds can be found in US20260138990A1, “TRICYCLIC FUSED IMIDAZOLE COMPOUNDS AS CD38 MODULATORS AND USES THEREOF” (AEOVIAN PHARMACEUTICALS, INC., priority 2023, published 2026).

For one test, the target named is T1, mouse CD38 (Mus musculus, UniProt P56528).
T1 construct: purchased Bio-Techne GmbH 4947-AC
T1 sequence (P56528 1-304): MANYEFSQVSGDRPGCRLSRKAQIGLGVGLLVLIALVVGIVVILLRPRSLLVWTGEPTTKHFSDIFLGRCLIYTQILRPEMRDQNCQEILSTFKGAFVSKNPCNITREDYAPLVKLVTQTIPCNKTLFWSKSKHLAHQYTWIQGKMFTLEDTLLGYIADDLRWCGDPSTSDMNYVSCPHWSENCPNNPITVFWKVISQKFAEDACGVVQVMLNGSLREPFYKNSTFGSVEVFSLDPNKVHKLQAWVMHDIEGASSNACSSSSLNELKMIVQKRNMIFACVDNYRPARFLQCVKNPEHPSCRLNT
Briefly: NAD+ cyclase activity assay with mouse recombinant CD38 protein (ε-NAD fluorescence). Format: biochemical. The note with it: 0.6 nM mouse CD38, substrate ε-NAD, 30 min preincubation, fluorescence 300/410 nm. Here is the method: (§1) Example 4: NAD^+ Cydase Activity Assay with Human or Mouse Recombinant CD38 Protein
(§2) The following assay was used to determine the ability of compounds of the invention to inhibit the hydrolysis of NAD^+ by the human or mouse enzyme, CD38.
(§3) Reaction buffer: 40 mM HEPES/NaOH pH 7.5, 250 mM sucrose, 0.01% Tween
(§4) Final concentrations: 0.6 nM mouse CD38 (4947-AC, Bio-Techne GmbH) 1.9 nM human CD38 (AVI2404, Bio-Techne GmbH)
(§5) Substrate: […] Nicotinamide 1,N6-ethenoadenine dinucleotide (&-NAD)
(§6) Read-out: Fluorescence intensity (extinction 300 nm/emission 410 nm)
(§7) Required reaction buffer, required CD38 concentration in reaction buffer and required e-NAD concentration in reaction buffer were prepared. Thereafter, 8 μL of CD38 in reaction buffer was added to High Control and compound concentration wells in 384 well plate (Corning #4514, 384 well, nonbinding surface, low volume, round bottom) and 8 μL of reaction buffer to Low Control. Compound dilutions were transferred via pintool technology that transfers 42.5 nL compound dilutions (12-point dose-response with factor three dilutions in 100% DMSO) well-to-well. Plate was subsequently shaken for 15 s at 1450 rpm and sealed for incubation for 30 min at room temperature. Thereafter, 2 μL of e-NAD in reaction buffer were added with Integra Voyager. After shaking for 15 s at 1450 rpm, plate was sealed, and assay signal were measured continuously with PHERAstar® fluorescence intensity module (extinction 300 nm/emission 410 nm).
(§8) Dose-response curves were constructed using twelve-pointfactor three dilutions in triplicates per plate. High control (full enzyme activity) was set to assay signal of CD38 and e-NAD in presence of vehicle (DMSO) and Low control (full enzyme inhibition) was set to assay signal of e-NAD and vehicle (DMSO) in absence of CD38. For data analysis, fluorescent signal of traces corresponding to each compound concentration and High and Low control were monitored over time. Each run, High Control (full enzyme activity) was fitted to Linear equation via GraphPad Prism to determine CD38 activity from the slope and determine the time interval of linear phase of reaction to account for minor fluctuations. Thereafter, slopes of all compound concentrations were determined via fitting to same linear equation (GraphPad Prism) over the same time interval as determined for High control. […] Unless otherwise stated, fitting of curves were fixed to 100%-inhibition and unlocked for 0%-inhibition.

Another test has as its target T2, human CD38 (Homo sapiens, UniProt P28907).
T2 construct: purchased Bio-Techne GmbH AVI2404
T2 sequence (P28907 1-300): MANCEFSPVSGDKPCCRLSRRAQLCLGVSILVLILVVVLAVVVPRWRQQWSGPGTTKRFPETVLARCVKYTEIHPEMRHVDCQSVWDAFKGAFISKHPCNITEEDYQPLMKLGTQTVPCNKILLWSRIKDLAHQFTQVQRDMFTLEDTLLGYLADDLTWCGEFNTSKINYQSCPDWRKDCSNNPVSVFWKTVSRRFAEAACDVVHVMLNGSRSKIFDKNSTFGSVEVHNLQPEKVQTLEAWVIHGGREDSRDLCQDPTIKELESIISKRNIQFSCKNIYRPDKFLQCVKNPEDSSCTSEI
The test is described as follows: NAD+ cyclase activity assay with human recombinant CD38 protein (ε-NAD fluorescence). Format: biochemical. Particulars: 1.9 nM human CD38, substrate ε-NAD, 30 min preincubation, fluorescence 300/410 nm. Here is the method:
as §1, §2, §3, §4, §5, §6, §7, §8

Where only a bound is given, the exact number is not on record here.

On to `CC1(C)COc2ccc(C(=O)N[C@@H]3CCCOC3)cc2-c2cncn21` [Compound 51A, (R)-5,5-Dimethyl-N-(tetrahydro-2H-pyran-3-yl)-5,6-dihydrobenzo[f]imidazo[1,5-d][1,4]oxazepine-10-carboxamide], for which the results for the half-inhibitory concentration (IC50) at mouse CD38 and on human CD38 were over 100 nM and over 1000 nM, respectively.
As to `O=C(N[C@H]1CC[C@H](CCO)CC1)c1ccc2c(c1)-c1cncn1CCO2` [Compound 56A, N-((1r,4r)-4-(2-Hydroxyethyl)cyclohexyl)-5,6-dihydrobenzo[f]imidazo[1,5-d][1,4]oxazepine-10-carboxamide], the half-maximal inhibitory concentration (IC50) is 1 to 10 nM on mouse CD38 and under 30 nM at human CD38.
For the compound “N-((1s,4s)-4-((Tetrahydrofuran-2-yl)methoxy)cyclohexyl)-5,6-dihydrobenzo[f]imidazo[1,5-d][1,4]oxazepine-10-carboxamide [Compound 75A]”, the IC50 on mouse CD38 is over 100 nM; at human CD38, over 1000 nM.
Regarding `O=C(Nc1ccc2nc[nH]c2c1)c1ccc2c(c1)-c1cncn1CCO2` [Compound 34A, N-(1H-Benzo [d]imidazol-6-yl)-5,6-dihydrobenzo[f]imidazo[1,5-d][1,4]oxazepine-10-carboxamide], the results for the half-inhibitory concentration (IC50) on mouse CD38 and at human CD38 were 1 to 10 nM and under 30 nM, respectively.
In the same order, the values of `O=C(N[C@H]1CC[C@@H](O[C@H]2C[C@@H](F)C2)CC1)c1ccc2c(c1)-c1cncn1CCO2` [Compound 149A, N-((1s,4s)-4-((1s,3s)-3-Fluorocyclobutoxy)cyclohexyl)-5,6-dihydrobenzo[f]imidazo[1,5-d][1,4]oxazepine-10-carboxamide] are 10 to 100 nM and 100 to 1000 nM.
`O=C(Nc1ccc2ncsc2c1)c1ccc2c(c1)-c1cncn1CCO2` [Compound 41A, N-(Benzo[d]thiazol-6-yl)-5,6-dihydrobenzo[f]imidazo[1,5-d][1,4]oxazepine-10-carboxamide]: the 50% inhibitory concentration (IC50) is 1 to 10 nM at mouse CD38 and under 30 nM on human CD38.
As to `COCCS(=O)(=O)N[C@H]1CC[C@H](NC(=O)c2ccc3c(c2)-c2cncn2CCO3)CC1` [Compound 29A, N-((1r,4r)-4-((2-Methoxyethyl)sulfonamido)cyclohexyl)-5,6-dihydrobenzo[f]imidazo[1,5-d][1,4]oxazepine-10-carboxamide], the values for the IC50 on mouse CD38 and at human CD38 were 1 to 10 nM and under 30 nM, respectively.
`O=C(N[C@H]1CC[C@H](NCC(F)(F)F)CC1)c1cc(F)c2c(c1)-c1cncn1CCO2` [Compound 115A, 8-Fluoro-N-((1r,4r)-4-((2,2,2-trifluoroethyl)amino)cyclohexyl)-5,6-dihydrobenzo[f]imidazo[1,5-d][1,4]oxazepine-10-carboxamide]: the IC50 at mouse CD38 was under 1 nM; on human CD38 it was under 30 nM.
For `CNC(=O)[C@H]1CC[C@H](NC(=O)c2ccc3c(c2)-c2cncn2CCO3)CC1` [Compound 17A, N-((1r,4r)-4-(Methylcarbamoyl)cyclohexyl)-5,6-dihydrobenzo[f]imidazo[1,5-d][1,4]oxazepine-10-carboxamide], the half-maximal inhibitory concentration (IC50) on mouse CD38 was under 1 nM; at human CD38, under 30 nM.
For the compound `CC1COc2ccc(C(=O)N[C@@H]3CCCOC3)cc2-c2cncn21` (stereo partly drawn) [Compound 68A, 5-Methyl-N—((R)-tetrahydro-2H-pyran-3-yl)-5,6-dihydrobenzo[f]imidazo[1,5-d][1,4]oxazepine-10-carboxamide], the IC50 at mouse CD38 was in the range of 10 to 100 nM; at human CD38 it was 100 to 1000 nM.
Consider `CC(C)(CO[C@H]1CC[C@@H](NC(=O)c2cc(Cl)c3c(c2)-c2cncn2CCO3)CC1)C(F)(F)F` [Compound 171A, 8-Chloro-N-((1s,4s)-4-(3,3,3-trifluoro-2,2-dimethylpropoxy)cyclohexyl)-5,6-dihydrobenzo[f]imidazo[1,5-d][1,4]oxazepine-10-carboxamide], for which the concentration for half-maximal inhibition (IC50) is over 100 nM on mouse CD38 and over 1000 nM on human CD38.
In the same order, the values of `COCCO[C@H]1CC[C@H](NC(=O)c2cc(Br)c3c(c2)-c2cncn2CCO3)CC1` [Compound 46A, 8-Bromo-N-((1r,4r)-4-(2-methoxyethoxy)cyclohexyl)-5,6-dihydrobenzo[f]imidazo[1,5-d][1,4]oxazepine-10-carboxamide] are under 1 nM and under 30 nM.
With `O=C(N[C@@H]1CCCOC1)c1ccc2c(c1)-n1ccnc1CCO2` [Compound 14A, (R)—N-(Tetrahydro-2H-pyran-3-yl)-4,5-dihydrobenzo[b]imidazo[1,2-d][1,4]oxazepine-9-carboxamide], the 50% inhibitory concentration (IC50) is over 100 nM at mouse CD38 and over 1000 nM at human CD38.
On to “N-((1r,4r)-4-((1-(Trifluoromethyl)cyclopropyl)methoxy)cyclohexyl)-5,6-dihydrobenzo[f]imidazo[1,5-d][1,4]oxazepine-10-carboxamide [Compound 142A]”, for which the IC50 on mouse CD38 was 1 to 10 nM; on human CD38, under 30 nM.
Turning to `O=C(N[C@H]1CC[C@H](OCCC(F)F)CC1)c1ccc2c(c1)-c1cncn1CCO2` [Compound 78A, N-((1r,4r)-4-(3,3-Difluoropropoxy)cyclohexyl)-5,6-dihydrobenzo[f]imidazo[1,5-d][1,4]oxazepine-10-carboxamide], the IC50 on mouse CD38 was over 100 nM; on human CD38 it was 100 to 1000 nM.
In the same order, the values of `CS(=O)(=O)CCCO[C@H]1CC[C@@H](NC(=O)c2ccc3c(c2)-c2cncn2CCO3)CC1` [Compound 86A, N-((1s,4s)-4-(3-(Methylsulfonyl)propoxy)cyclohexyl)-5,6-dihydrobenzo[f]imidazo[1,5-d][1,4]oxazepine-10-carboxamide] are over 100 nM and 100 to 1000 nM.
Regarding `O=C(N[C@H]1CC[C@@H](O[C@H]2C[C@H](F)C2)CC1)c1ccc2c(c1)-c1cncn1CCO2` [Compound 150A, N-((1s,4s)-4-((1r,3r)-3-Fluorocyclobutoxy)cyclohexyl)-5,6-dihydrobenzo[f]imidazo[1,5-d][1,4]oxazepine-10-carboxamide], the results for the 50% inhibitory concentration (IC50) at mouse CD38 and at human CD38 were over 100 nM and 100 to 1000 nM, respectively.
As to `CC(C)(CO[C@H]1CC[C@H](NC(=O)c2cc(Cl)c3c(c2)-c2cncn2CCO3)CC1)C(F)(F)F` [Compound 170A, 8-Chloro-N-((1r,4r)-4-(3,3,3-trifluoro-2,2-dimethylpropoxy)cyclohexyl)-5,6-dihydrobenzo[f]imidazo[1,5-d][1,4]oxazepine-10-carboxamide], the IC50 at mouse CD38 was 1 to 10 nM; on human CD38, 30 to 100 nM.
Regarding `O=C(N[C@@H]1CCCOC1)c1ccc2c(c1)-c1cncn1CCCO2` [Compound 26A, (R)—N-(Tetrahydro-2H-pyran-3-yl)-6,7-dihydro-5H-benzo[b]imidazo[5,1-d][1,5]oxazocine-11-carboxamide], the results for the 50% inhibitory concentration (IC50) at mouse CD38 and at human CD38 were 10 to 100 nM and 100 to 1000 nM, respectively.
In the case of `CC(C)(CO[C@H]1CC[C@@H](NC(=O)c2ccc3c(c2)-c2cncn2CCO3)CC1)C(F)(F)F` [Compound 121A, N-((1s,4s)-4-(3,3,3-Trifluoro-2,2-dimethylpropoxy)cyclohexyl)-5,6-dihydrobenzo[f]imidazo[1,5-d][1,4]oxazepine-10-carboxamide], the IC50 was over 100 nM on mouse CD38 and over 1000 nM at human CD38.
With `CC(C)(C)OC(=O)N1Cc2ccc(NC(=O)c3ccc4c(c3)-c3cncn3CCO4)cc2C1` [Compound 23A, tert-Butyl 5-(5,6-dihydrobenzo[f]imidazo[1,5-d][1,4]oxazepine-10-carboxamido)isoindoline-2-carboxylate], the half-inhibitory concentration (IC50) at mouse CD38 was 10 to 100 nM; on human CD38, 30 to 100 nM.
